“Also recorded” adds a separate entry of the source.
What was measured:
HIF-1 = settings: cited from earlier work
BeWo cells = assay: Secretion of VEGF, sFLT-1 and PlGF by BeWo cytotrophoblast cell line under hypoxia; assay type: cell-based; settings: 5 μM, 10 μM and 30 μM 2-ME
[1] = tested on: tumor and non-tumor cell lines; settings: wide variety of tumor and non-tumor cell lines; cited from earlier work
[2] = administered orally; cited from earlier work
sFLT-1 and VEGF = assay: Blood levels of sFLT-1 and VEGF in normal mice treated with 2-ME; assay type: in vivo; settings: twice daily 30 μM 2-ME, blood samples
Experimental: Normal mice were treated with 2-ME twice daily with 30 μM of 2-ME. Blood samples were then obtained and assayed for the level of sFLT-1 and VEGF. […] The 30 μM concentration represents approximately the normal physiological level of 2-ME that is found in the blood of pregnant women in the late second trimester or early third trimester through the end of pregnancy. At the end of a pregnancy, levels of 2-ME in non-preeclamptic subjects drops back to non pregnant levels, which are approximately 1-5 μM.

[3] = tested on: cytotrophoblasts from the placenta; assay: Expression of HIF-1α and angiogenic factors in cytotrophoblasts from the placenta (summary statement); assay type: cell-based
[4] = tested on: HTR-8/SV neo trophoblast cells; assay: Blot of protein expression in trophoblast cell lysates under hypoxic conditions; assay type: cell-based; settings: 5 μM, 10 μM and 30 μM 2-ME
Experimental: FIG. 5 is a blot showing that 2-methoxyestradiol treatment of HTR-8/SV neo trophoblast cells downregulations HIF-1α, VEGF165, Flt-1, and sFlt-1 expression in cell lysates under hypoxic conditions.
(§1) We have shown that 5 μM, 10 μM and 30 μM of 2-ME can reduce the secreted levels of VEGF up to 75% in a dose dependent manner in a placenta cytotrophoblast cell line (HTR) under hypoxia. […] Similarly, 5 μM, 10 μM and 30 μM of 2-ME can reduce the secreted sFLT-1 levels by up to 50% or more in a dose dependent manner in the same cell lines under hypoxia (see FIGS. 1-3).

[5] = tested on: placenta cytotrophoblast cell line (HTR); assay: Secretion of VEGF, sFLT-1 and PlGF by HTR cytotrophoblast cell line under hypoxia; assay type: cell-based
Experimental: as §1

[6] = 5 μM, 10 μM and 30 μM 2-ME, dose dependent, HTR cell line, hypoxia

expression of VEGF, PlGF, VEGF Receptor 1 (VEGFR1) and sFLT-1 [3]: dramatic decrease
Structure (SMILES): COc1cc2c(cc1O)CC[C@@H]1[C@@H]2CC[C@]2(C)[C@@H](O)CC[C@@H]12 [2-ME, 2-methoxyestradiol]
HIF-1 induced transcriptional activation of VEGF expression (HIF-1): inhibits
HIF-1 level (HIF-1; posttranscriptional level): downregulate
PlGF secretion levels (BeWo cells): reduce PlGF secretion levels in a dose dependent manner
reduction of secreted sFLT-1 levels (BeWo cells; dose dependent): ≥ 50%
anti-proliferative activity [1]: potent
apoptosis [1]: induces apoptosis
antitumor and antiangiogenic activity [2]: exhibits antitumor and antiangiogenic activity
toxicity [2]: little or no toxicity
bound VEGF (sFLT-1 and VEGF): decrease in bound VEGF
reduction in sFLT-1 expression (sFLT-1 and VEGF): 50%
expression of HIF-1α [3]: decreases
expression level of Flt-1 in cell lysates [4]: downregulated
expression level of HIF-1α in cell lysates [4]: downregulated
expression level of VEGF165 in cell lysates [4]: downregulated
expression level of sFlt-1 in cell lysates [4]: downregulated
expression level of Flt-1 in cell lysates ([4]; listed as 2-methoxyestradiol): downregulations
expression level of HIF-1α in cell lysates ([4]; listed as 2-methoxyestradiol): downregulations
expression level of VEGF165 in cell lysates ([4]; listed as 2-methoxyestradiol): downregulations
expression level of sFlt-1 in cell lysates ([4]; listed as 2-methoxyestradiol): downregulations
PlGF secretion levels ([5]; 5 μM, 10 μM and 30 μM 2-ME, HTR cell line, hypoxia): reduce PlGF secretion levels in a dose dependent manner
PlGF secretion levels ([5]; 5 μM, 10 μM and 30 μM 2-ME, HTR cell line, hypoxia, listed as 2-methoxyestradiol): reduction of PlGF secretion
reduction of secreted levels of VEGF [5, 6]: up to 75%
reduction of secreted sFLT-1 levels [5, 6]: ≥ 50%
sFLT-1 production / secretion ([5]; HTR / HTR-8/SV neo cells): reduction of sFLT-1 production
secretion of VEGF ([5]; HTR / HTR-8/SV neo cells): reduces secretion of VEGF; also recorded: reduction

From US8273383B2, “Methods and compositions for treatment of preeclampsia” (Children's Medical Center Corporation, priority 2004, dated 2012)
